Experimental findings from US20220289692A1, “NLRP3 INHIBITORS” (Inflazome Limited, priority 2019, published 2022) are described below.

Assay [1] addresses T1, NLRP3 (Homo sapiens, UniProt Q96P20). Description: Human whole blood IL-1β release assay (LPS, nigericin, AlphaLisa). The following applies: 1 μg/ml LPS, 3 hrs compound, nigericin 10 μM 1 hr, read-out: HWB IC50. Further details: Plate out 80 μl of whole blood containing 1 μg/ml of LPS in 96-well, clear bottom cell culture plate; from tissue; host or cells: human whole blood from healthy donors, LPS-primed, nigericin-stimulated. The assay is classed as cell-based. On the procedure:
For systemic delivery, the ability to inhibit NLRP3 when the compounds are present within the bloodstream is of great importance. For this reason, the NLRP3 inhibitory activity of a number of compounds in human whole blood was investigated in accordance with the following protocol.
Human whole blood in Li-heparin tubes was obtained from healthy donors from a volunteer donor panel. • 1. Plate out 80 μl of whole blood containing 1 μg/ml of LPS in 96-well, clear bottom cell culture plate (Corning #3585) • 2. Add 10 μl compound (8 points half-log dilution with 10 μM top dose) or vehicle (DMSO 0.1% FAC) to the appropriate wells • 3. Incubate for 3 hrs at 37° C., 5% CO2 • 4. Add 10 μl nigericin (Sigma #N7143) (10 μM FAC) to all wells • 5. Incubate for 1 hr at 37° C., 5% CO2 • 6. At the end of the incubation period, spin plates at 300×g for 5 mins to pellet cells and remove 20 μl of supernatant and add to 96-well v-bottom plates for IL-1β analysis (note: these plates containing the supernatants can be stored at −80° C. to be analysed at a later date) • 7. IL-1β was measured according to the manufacturer protocol (Perkin Elmer-AlphaLisa IL-1 Kit AL220F-5000) • 8. IC50 data is fitted to a non-linear regression equation (log inhibitor vs response-variable slope 4-parameters)

The target of assay [2] is T1, NLRP3. Briefly: THP-1 cells pyroptosis assay (LPS priming, nigericin, resazurin read-out). Format: cell-based. Further details: Seed THP-1 cells (25,000 cells/well) containing 1.0 μg/ml LPS in 40 μl of RPMI medium; host or cells: THP-1 cells, LPS-primed, nigericin-stimulated. The following applies: 1.0 μg/ml LPS, 3 hrs compound, nigericin 5 μM 1 hr. The protocol:
THP-1 cells (ATCC #TIB-202) were grown in RPMI containing L-glutamine (Gibco #11835) supplemented with 1 mM sodium pyruvate (Sigma #S8636) and penicillin (100 units/ml)/streptomycin (0.1 mg/ml) (Sigma #P4333) in 10% Fetal Bovine Serum (FBS) (Sigma #F0804). The cells were routinely passaged and grown to confluency (˜10^6 cells/ml). On the day of the experiment, THP-1 cells were harvested and resuspended into RPMI medium (without FBS). The cells were then counted and viability (>90%) checked by Trypan blue (Sigma #T8154). Appropriate dilutions were made to give a concentration of 625,000 cells/ml. To this diluted cell solution was added LPS (Sigma #L4524) to give a […] Final Assay Concentration (FAC). 40 μl of the final preparation was aliquoted into each well of a 96-well plate. The plate thus prepared was used for compound screening. The following method step-by-step assay was followed for compound screening. • 1. Seed THP-1 cells (25,000 cells/well) containing 1.0 μg/ml LPS in 40 μl of RPMI medium (without FBS) in 96-well, black walled, clear bottom cell culture plates coated with poly-D-lysine (VWR #734-0317) • 2. Add 5 μl compound (8 points half-log dilution, with 10 μM top dose) or vehicle (DMSO 0.1% FAC) to the appropriate wells • 3. Incubate for 3 hrs at 37° C., 5% CO2 • 4. Add 5 μl nigericin (Sigma #N7143) (FAC 5 μM) to all wells • 5. Incubate for 1 hr at 37° C., 5% CO2 • 6. At the end of the incubation period, spin plates at 300×g for 3 mins and remove supernatant • 7. Then add 50 μl of resazurin (Sigma #R7017) (FAC 100 μM resazurin in RPMI medium without FBS) and incubate plates for a further 1-2 hrs at 37° C. and 5% CO2 • 8. Plates were read in an Envision reader at Ex 560 nm and Em 590 nm • 9. IC50 data is fitted to a non-linear regression equation (log inhibitor vs response-variable slope 4-parameters) The results of the pyroptosis assay are summarised in Table 1 below as THP IC50.

T1 sequence (Q96P20 whole entry): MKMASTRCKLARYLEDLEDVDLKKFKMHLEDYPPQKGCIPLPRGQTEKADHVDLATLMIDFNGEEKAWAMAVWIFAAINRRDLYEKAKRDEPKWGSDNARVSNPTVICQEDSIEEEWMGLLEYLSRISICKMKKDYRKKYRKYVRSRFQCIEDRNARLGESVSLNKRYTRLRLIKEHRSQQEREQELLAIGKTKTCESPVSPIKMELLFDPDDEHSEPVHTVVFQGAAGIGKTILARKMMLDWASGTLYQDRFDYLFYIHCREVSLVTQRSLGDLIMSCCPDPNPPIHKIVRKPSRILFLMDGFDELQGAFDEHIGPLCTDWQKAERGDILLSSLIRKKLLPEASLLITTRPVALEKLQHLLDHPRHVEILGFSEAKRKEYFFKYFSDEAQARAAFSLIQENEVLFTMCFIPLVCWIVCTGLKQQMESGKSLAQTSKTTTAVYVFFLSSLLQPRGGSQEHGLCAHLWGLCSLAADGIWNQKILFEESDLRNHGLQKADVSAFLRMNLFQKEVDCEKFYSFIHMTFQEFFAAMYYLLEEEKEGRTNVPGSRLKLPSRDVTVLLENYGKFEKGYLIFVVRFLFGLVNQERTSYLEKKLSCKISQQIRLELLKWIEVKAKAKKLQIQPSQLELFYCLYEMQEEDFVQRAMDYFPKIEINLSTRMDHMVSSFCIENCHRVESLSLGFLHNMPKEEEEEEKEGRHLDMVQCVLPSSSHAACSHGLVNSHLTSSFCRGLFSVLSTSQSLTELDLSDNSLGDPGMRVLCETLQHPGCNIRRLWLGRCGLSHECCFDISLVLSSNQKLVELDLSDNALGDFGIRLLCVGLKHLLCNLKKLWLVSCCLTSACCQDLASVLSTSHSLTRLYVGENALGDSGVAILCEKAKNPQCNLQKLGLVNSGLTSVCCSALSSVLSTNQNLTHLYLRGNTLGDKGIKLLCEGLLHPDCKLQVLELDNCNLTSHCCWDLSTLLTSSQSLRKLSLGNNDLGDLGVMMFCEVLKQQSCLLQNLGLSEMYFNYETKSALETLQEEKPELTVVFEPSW

One may read the IC50 as the point on the concentration scale where inhibition reaches its midpoint. As for `CCOC(=O)c1nnc(Nc2c3c(cc4c2CCC4)CCC3)[nH]1` [Example 1, ethyl 5-((1,2,3,5,6,7-hexahydro-s-indacen-4-yl)amino)-4H-1,2,4-triazole-3-carboxylate], the IC50 was no more than 5 µM in assay [1] and no more than 2 µM in assay [2].

In the case of `O=C(OCc1cccnc1)c1nnc(Nc2c3c(cc4c2CCC4)CCC3)[nH]1` [Example 2, pyridin-3-ylmethyl 5-((1,2,3,5,6,7-hexahydro-s-indacen-4-yl)amino)-4H-1,2,4-triazole-3-carboxylate], the IC50 in assay [2] is no more than 10 µM.

Turning to `COC(=O)c1nnc(Nc2c(-c3ccnc(OC4CCN(C)CC4)c3)ccc3c2CCC3)[nH]1` [Example 3], in assay [2], the IC50 was no more than 10 µM.

For `O=C(OCc1ccccc1)c1nnc(Nc2c3c(cc4c2CCC4)CCC3)[nH]1` [Example 4], the IC50 in assay [2] is no more than 5 µM.

As for `COC(=O)c1nnc(Nc2c3c(cc(C)c2-c2ccnc(OC)c2)CCC3)[nH]1` [Example 5], in assay [2], the IC50 is no more than 5 µM.

With `CC(C)OC(=O)c1nnc(Nc2c3c(cc4c2CCC4)CCC3)[nH]1` [Example 6], the concentration for half-maximal inhibition (IC50) in assay [2] was no more than 10 µM.

On to `COC(=O)c1nnc(Nc2c3c(cc4c2CCC4)CCC3)[nH]1` [Example 7], for which the concentration for half-maximal inhibition (IC50) in assay [2] was no more than 2 µM.

As for `CCOC(=O)c1nnc(Nc2c(-c3ccnc(OC)c3)ccc3c2CCC3)[nH]1` [Example 8], in assay [2], the IC50 is no more than 5 µM.
